Measurements: PubChem BioAssay AID2053 (NMMLSC, 2009)

Target: GTPase HRas (Homo sapiens) (UniProt P01112)
Test: blockade of Bodipy-GTP loading onto wild-type Ras – biochemical, oxadiazole analogs, multiplex bead flow cytometry, SAR follow-up (AID 2053)
Settings: GST-Ras beads, Bodipy-FL-GTP binding, Ki calculated from EC50

GTPase HRas (Homo sapiens), sequence (P01112 whole entry, looked up): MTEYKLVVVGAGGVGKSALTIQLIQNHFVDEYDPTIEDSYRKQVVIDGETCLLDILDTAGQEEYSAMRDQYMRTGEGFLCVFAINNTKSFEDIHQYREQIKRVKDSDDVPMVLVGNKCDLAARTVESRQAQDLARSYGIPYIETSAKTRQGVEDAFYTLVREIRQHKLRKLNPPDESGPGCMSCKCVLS

| Structure (SMILES) | Ki |
| --- | --- |
| COc1ccc(-c2noc(CCC(=O)N3CCN(c4ccccc4F)CC3)n2)cc1 | 0.01 µM |
| Cc1ccc(C)c(N2CCN(C(=O)CCc3nc(-c4ccc(Br)cc4)no3)CC2)c1 | 0.29 µM |
| COc1ccc(-c2noc(CCC(=O)N3CCN(c4ccccc4Cl)CC3)n2)cc1 | 0.29 µM |
| COc1ccc(-c2noc(CCC(=O)N3CCN(c4cc(C)ccc4C)CC3)n2)cc1 | 0.27 µM |

Continued by falling Ki, values first:

| Ki | Structure (SMILES) |
| --- | --- |
| 0.23 µM | COc1cccc(-c2noc(CCC(=O)N3CCN(c4cc(C)ccc4C)CC3)n2)c1 |
| 0.14 µM | Cc1ccc(C)c(N2CCN(C(=O)CCc3nc(-c4ccccc4)no3)CC2)c1 |
| 0.01 µM | Cc1ccc(C)c(N2CCN(C(=O)CCc3nc(-c4ccccc4Br)no3)CC2)c1 |
